Our source for the Max, EC50 and IC50 values is ChEMBL document CHEMBL1142811, “Design and syntheses of melanocortin subtype-4 receptor agonists. Part 2: discovery of the dihydropyridazinone motif” (Bioorg Med Chem Lett, 2005).

Structures are written as SMILES.

The target of one test is T1, Melanocortin receptor 4 (Homo sapiens, UniProt P32245). Nature of the test: Maximum percentage of cAMP accumulation relative to alpha-MSH at human melanocortin 4 receptor at 10 uM. It counts as functional.
T1 sequence (P32245 whole entry): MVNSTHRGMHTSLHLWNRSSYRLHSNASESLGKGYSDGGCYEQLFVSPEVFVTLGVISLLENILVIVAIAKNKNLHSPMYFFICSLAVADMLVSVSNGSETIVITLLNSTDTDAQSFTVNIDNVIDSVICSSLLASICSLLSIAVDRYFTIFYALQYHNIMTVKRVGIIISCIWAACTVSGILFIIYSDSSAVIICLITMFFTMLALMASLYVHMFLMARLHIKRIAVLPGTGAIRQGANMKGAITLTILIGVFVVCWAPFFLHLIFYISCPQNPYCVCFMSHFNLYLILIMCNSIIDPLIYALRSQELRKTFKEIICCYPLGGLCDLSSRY
With `COc1ccc(N2N=C(Sc3ccc(Cl)cc3)CC(CC[C@@H](C)NC(=O)[C@H]3CNCC[C@@H]3c3ccc(F)cc3)C2=O)cc1` (stereo in doubt; 25) [listing 1 of 2 here], the Max came to 72%.

`COc1ccc(N2N=C(Sc3ccc(Cl)cc3)CC(CC[C@@H](C)NC(=O)[C@H]3CCNC[C@@H]3c3ccc(F)cc3)C2=O)cc1` (stereo in doubt; 62) [listing 1 of 2 here]: the Max turned out to be 100%.

Compound `COc1ccc(-n2nc(Sc3ccc(Cl)cc3)cc(CC[C@@H](C)NC(=O)[C@H]3CNCC[C@@H]3c3ccccc3)c2=O)cc1` showed a Max of 77%.

`COc1ccc(-n2nc(Sc3ccc(Cl)cc3)cc(CC[C@@H](C)NC(=O)[C@H]3CCNC[C@@H]3c3ccc(C(F)(F)F)cc3)c2=O)cc1` returned a Max of 75%.

For the compound `COc1ccc(N2N=C(Sc3ccc(Cl)cc3)CC(CC[C@@H](C)NC(=O)[C@@H]3CCNC[C@H]3c3ccc(F)cc3)C2=O)cc1` (stereo in doubt; 64) [listing 1 of 2 here], the Max is 16%.

`COc1ccc(-n2nc(Sc3ccc(Cl)cc3)cc(CC[C@@H](C)NC(=O)[C@H]3CNCC[C@@H]3c3ccccc3F)c2=O)cc1` gave a Max of 58%.

A further test concerns the target T1, Melanocortin receptor 4. Nature of the test: Maximum percentage of cAMP accumulation compared to alpha-MSH at human melanocortin 4 receptor at 10 uM. The test is classed as functional.
Regarding `COc1ccc(-n2nc(Sc3ccc(Cl)cc3)cc(CC[C@H](C)NC(=O)[C@H]3CNCCN3c3ccc(F)cc3)c2=O)cc1`, the Max turned out to be 9%.

Compound `COc1ccc(-n2nc(Sc3ccc(Cl)cc3)cc(CC[C@@H](C)NC[C@@H]3CNCC[C@H]3c3ccc(F)cc3)c2=O)cc1` had a Max of 9%.

The compound `COc1ccc(-n2nc(Sc3ccc(Cl)cc3)cc(CC[C@@H](C)NC(=O)[C@H]3CNCCN3c3ccc(F)cc3)c2=O)cc1` yielded a Max of 6%.

For `COc1ccc(-n2nc(Sc3ccc(Cl)cc3)cc(CC[C@@H](C)NC(=O)[C@H]3CNCC[C@@H]3c3cccc4ccccc34)c2=O)cc1`, the Max is 22%.

`COc1ccc(N2N=C(Sc3ccc(Cl)cc3)CC(CC[C@@H](C)NC(=O)[C@@H]3CNCC[C@H]3c3ccc(F)cc3)C2=O)cc1` (stereo in doubt; 60) [listing 1 of 2 here]: the Max turned out to be 20%.

For the compound `COc1ccc(-n2nc(Sc3ccc(Cl)cc3)cc(CC[C@@H](C)NC(=O)[C@H]3CNCC[C@@H]3c3ccc4ccccc4c3)c2=O)cc1`, the Max is 12%.

`COc1ccc(-n2nc(Sc3ccc(Cl)cc3)cc(CC[C@@H](C)NC(=O)[C@H]3CCNC[C@@H]3Cc3ccccc3)c2=O)cc1` registered a Max of 36%.

For the compound `COc1ccc(-n2nc(Sc3ccc(Cl)cc3)cc(CC[C@H](C)NC(=O)[C@@H]3CNCCN3c3ccc(F)cc3)c2=O)cc1`, the Max came out at 38%.

For the next test, the target named is T1, Melanocortin receptor 4. Nature of the test: Effective concentration at human melanocortin 4 receptor in cAMP release assay. The test is classed as functional.
Turning to `COc1ccc(N2N=C(Sc3ccc(Cl)cc3)CC(CC[C@@H](C)NC(=O)[C@H]3CCNC[C@@H]3c3ccc(F)cc3)C2=O)cc1` (stereo in doubt; 62) [listing 2 of 2 here], a half-maximal response (EC50) required 480 nM.

Take `COc1ccc(N2N=C(Sc3ccc(Cl)cc3)CC(CC[C@@H](C)NC(=O)[C@@H]3CNCC[C@H]3c3ccc(F)cc3)C2=O)cc1` (stereo in doubt; 61): the response was half-maximal at 4000 nM (EC50).

`COc1ccc(N2N=C(Sc3ccc(Cl)cc3)CC(CC[C@@H](C)NC(=O)[C@@H]3CCNC[C@H]3c3ccc(F)cc3)C2=O)cc1` (stereo in doubt; 65) came in with an EC50 of 1400 nM.

Turning to `COc1ccc(N2N=C(Sc3ccc(Cl)cc3)CC(CC[C@@H](C)NC(=O)[C@H]3CNCC[C@@H]3c3ccc(F)cc3)C2=O)cc1` (stereo in doubt; 25) [listing 2 of 2 here], the EC50 stood at 390 nM.

In the case of `COc1ccc(N2N=C(Sc3ccc(Cl)cc3)CC(CC[C@@H](C)NC(=O)C3CNC[C@@H]3c3ccc(F)cc3)C2=O)cc1` (single isomer, unassigned; 66), the EC50 was 1200 nM.

The compound `COc1ccc(N2N=C(Sc3ccc(Cl)cc3)CC(CC[C@@H](C)NC(=O)[C@@H]3CCNC[C@H]3c3ccc(F)cc3)C2=O)cc1` (stereo in doubt; 64) [listing 2 of 2 here] returned an EC50 of 2000 nM.

The compound `COc1ccc(N2N=C(Sc3ccc(Cl)cc3)CC(CC[C@@H](C)NC(=O)C3CNC[C@H]3c3ccc(F)cc3)C2=O)cc1` (single isomer, unassigned; 69) returned an EC50 of 740 nM.

In turn, `COc1ccc(-n2nc(Sc3ccc(Cl)cc3)cc(CC[C@@H](C)NC(=O)[C@H]3CCNC[C@@H]3c3ccc(C(F)(F)F)cc3)c2=O)cc1` yielded a concentration for a half-maximal effect (EC50) of 710 nM.

Consider `COc1ccc(N2N=C(Sc3ccc(Cl)cc3)CC(CC[C@@H](C)NC(=O)C3CNC[C@H]3c3ccc(F)cc3)C2=O)cc1` (single isomer, unassigned; 68), for which the EC50 stood at 4000 nM.

In turn, `COc1ccc(-n2nc(Sc3ccc(Cl)cc3)cc(CC[C@@H](C)NC(=O)[C@H]3CNCC[C@@H]3c3ccccc3F)c2=O)cc1` showed an EC50 of 550 nM.

The target of the next test is T1, Melanocortin receptor 4. Nature of the test: Inhibition of [125I]-NDP- alpha-MSH binding to human melanocortin 4 receptor expressed in CHO cells. The test is classed as cell-based.
`COc1ccc(N2N=C(Sc3ccc(Cl)cc3)CC(CC[C@@H](C)NC(=O)[C@H]3CCNC[C@@H]3c3ccc(F)cc3)C2=O)cc1` (stereo in doubt; 62) [listing 2 of 2 here] displayed an IC50 of 540 nM.

`COc1ccc(N2N=C(Sc3ccc(Cl)cc3)CC(CC[C@@H](C)NC(=O)[C@@H]3CNCC[C@H]3c3ccc(F)cc3)C2=O)cc1` (stereo in doubt; 61): the concentration for half-maximal inhibition (IC50) is 690 nM.

With `COc1ccc(N2N=C(Sc3ccc(Cl)cc3)CC(CC[C@@H](C)NC(=O)[C@@H]3CCNC[C@H]3c3ccc(F)cc3)C2=O)cc1` (stereo in doubt; 65), the IC50 was determined as 280 nM.

As for `COc1ccc(N2N=C(Sc3ccc(Cl)cc3)CC(CC[C@@H](C)NC(=O)[C@H]3CNCC[C@@H]3c3ccc(F)cc3)C2=O)cc1` (stereo in doubt; 25) [listing 2 of 2 here], the IC50 was determined as 26 nM.

`COc1ccc(-n2nc(Sc3ccc(Cl)cc3)cc(CC[C@H](C)NC(=O)[C@H]3CNCCN3c3ccc(F)cc3)c2=O)cc1`: the IC50 amounted to 1100 nM.

In turn, `COc1ccc(N2N=C(Sc3ccc(Cl)cc3)CC(CC[C@@H](C)NC(=O)C3CNC[C@@H]3c3ccc(F)cc3)C2=O)cc1` (single isomer, unassigned; 66) had an IC50 of 47 nM.

In turn, `COc1ccc(-n2nc(Sc3ccc(Cl)cc3)cc(CC[C@@H](C)NC[C@@H]3CNCC[C@H]3c3ccc(F)cc3)c2=O)cc1` had an IC50 of 290 nM.

Consider `COc1ccc(-n2nc(Sc3ccc(Cl)cc3)cc(CC[C@@H](C)NC(=O)[C@H]3CNCCN3c3ccc(F)cc3)c2=O)cc1`, for which the IC50 was found to be 950 nM.

Compound `COc1ccc(-n2nc(Sc3ccc(Cl)cc3)cc(CC[C@@H](C)NC(=O)[C@H]3CNCC[C@@H]3c3cccc4ccccc34)c2=O)cc1` registered an IC50 of 89 nM.

`COc1ccc(N2N=C(Sc3ccc(Cl)cc3)CC(CC[C@@H](C)NC(=O)[C@@H]3CCNC[C@H]3c3ccc(F)cc3)C2=O)cc1` (stereo in doubt; 64) [listing 2 of 2 here] registered an IC50 of 1300 nM.

Compound `COc1ccc(-n2nc(Sc3ccc(Cl)cc3)cc(CC[C@@H](C)NC(=O)[C@H]3CNCC[C@@H]3c3ccc4ccccc4c3)c2=O)cc1` displayed an IC50 of 17 nM.

Compound `COc1ccc(-n2nc(Sc3ccc(Cl)cc3)cc(CC[C@@H](C)NC(=O)[C@H]3CCNC[C@@H]3Cc3ccccc3)c2=O)cc1` displayed an IC50 of 750 nM.

For `COc1ccc(-n2nc(Sc3ccc(Cl)cc3)cc(CC[C@H](C)NC(=O)[C@@H]3CNCCN3c3ccc(F)cc3)c2=O)cc1`, the 50% inhibitory concentration (IC50) turned out to be 1000 nM.

In the case of `COc1ccc(N2N=C(Sc3ccc(Cl)cc3)CC(CC[C@@H](C)NC(=O)C3CNC[C@H]3c3ccc(F)cc3)C2=O)cc1` (single isomer, unassigned; 69), the IC50 amounted to 430 nM.

For the compound `COc1ccc(-n2nc(Sc3ccc(Cl)cc3)cc(CC[C@@H](C)NC(=O)[C@H]3CCNC[C@@H]3c3ccc(C(F)(F)F)cc3)c2=O)cc1`, the IC50 was determined as 200 nM.

With `COc1ccc(N2N=C(Sc3ccc(Cl)cc3)CC(CC[C@@H](C)NC(=O)C3CNC[C@H]3c3ccc(F)cc3)C2=O)cc1` (single isomer, unassigned; 68), the IC50 amounted to 780 nM.

`COc1ccc(N2N=C(Sc3ccc(Cl)cc3)CC(CC[C@@H](C)NC(=O)[C@@H]3CNCC[C@H]3c3ccc(F)cc3)C2=O)cc1` (stereo in doubt; 60) [listing 2 of 2 here] returned an IC50 of 560 nM.

In the case of `COc1ccc(-n2nc(Sc3ccc(Cl)cc3)cc(CC[C@@H](C)NC(=O)[C@H]3CNCC[C@@H]3c3ccccc3F)c2=O)cc1`, the IC50 came out at 13 nM.
